Results from paper PMC4658133, “Intrinsic Levanase Activity of Bacillus subtilis 168 Levansucrase (SacB)” (PLoS ONE, 2015).

Target: T1, levansucrase (SacB) (Bacillus subtilis, UniProt P05655)
T1 construct: expressed in Escherichia coli BL21, ion exchange purified
T1 sequence (P05655 30-473): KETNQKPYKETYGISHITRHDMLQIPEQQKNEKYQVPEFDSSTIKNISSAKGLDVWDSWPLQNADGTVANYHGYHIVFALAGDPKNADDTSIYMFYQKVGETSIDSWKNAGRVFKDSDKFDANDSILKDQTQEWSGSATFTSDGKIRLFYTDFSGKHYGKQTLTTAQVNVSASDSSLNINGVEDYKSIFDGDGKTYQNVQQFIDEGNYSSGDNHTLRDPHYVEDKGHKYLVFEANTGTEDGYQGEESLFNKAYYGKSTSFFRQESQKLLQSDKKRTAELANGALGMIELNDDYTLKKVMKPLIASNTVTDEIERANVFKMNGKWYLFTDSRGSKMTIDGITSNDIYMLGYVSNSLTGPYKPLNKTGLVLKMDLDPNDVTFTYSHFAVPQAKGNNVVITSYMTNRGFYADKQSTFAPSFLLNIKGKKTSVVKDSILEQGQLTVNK
Assay: HPAEC-PAD product profile after […] h
Format: biochemical
Settings: fructosyl acceptor, 127 mM; donor 2.5 mM LMw levan; 50 mM sodium acetate, 1 mM CaCl2, pH 6.0

Structure (SMILES): OC[C@H]1OC(O)[C@H](O)[C@@H](O)[C@@H]1O (stereo partly shown) [glucose]
- HPAEC-PAD product profile after 5 h: These profile results from the fructosyl transfer from levan to glucose
